Data on 35 molecules can be found in US11377451B2, “Compositions and methods for treating cancer” (The Regents of the University of California, priority 2019, dated 2022).

The structures appear in SMILES notation.

One assay relates to HK301. The assay can be described thus: GI50 assay (Cell Titer Glo proliferation, 3 days). The format is cell-based, human. The settings on record: Homo sapiens, 72 h; HK301, 3 days; read-out: HK301 GI50.
For a further assay, the system named is GBM39. Nature of the assay: GI50 assay (Cell Titer Glo proliferation, 3 days). The settings on record: Homo sapiens, 72 h; GBM39, 3 days. It is filed as cell-based, human. For orientation: In ATP-based viability assays light output follows the ATP content of the culture.

Usually GI50 stands for the concentration that inhibits growth by half. As to `OC1COc2cc3ncnc(Nc4cccc(Br)c4F)c3cc2O1` (racemic) [JGK050, (±)-4-(3-Bromo-2-fluoroanilino)-7,8-dihydro[1,4]dioxino[2,3-g]quinazolin-7-ol], the GI50 in the assay with HK301 came to 1.16 µM; in the assay on GBM39 it was 3.57 µM.

On to `CC1Oc2cc3ncnc(Nc4cccc(Br)c4F)c3cc2OC1C` (racemic) [JGK051, (±)-cis- and (±)-trans-N-(3-Bromo-2-fluorophenyl)-7,8-dimethyl-7,8-dihydro[1,4]dioxino[2,3-g]quinazolin-4-amine], for which the GI50 was 8.25 µM in the assay with HK301 and 24.1 µM in the assay on GBM39.

Take `C[C@@H]1Oc2cc3c(Nc4cccc(Br)c4F)ncnc3cc2O[C@@H]1C` (racemic) [JGK052, (±)-cis-N-(3-Bromo-2-fluorophenyl)-7,8-dimethyl-7,8-dihydro[1,4]dioxino[2,3-g]quinazolin-4-amine]: the GI50 came out at 3.87 µM in the assay on HK301 and 9.22 µM in the assay on GBM39.

In the case of `C[C@@H]1Oc2cc3ncnc(Nc4cccc(Br)c4F)c3cc2O[C@H]1C` (racemic) [JGK059, (±)-trans-N-(3-Bromo-2-fluorophenyl)-7,8-dimethyl-7,8-dihydro[1,4]dioxino[2,3-g]quinazolin-4-amine], the GI50 with HK301 turned out to be 8.11 µM; in the assay on GBM39, 11.2 µM.

`C=CC1COc2cc3ncnc(Nc4cccc(Br)c4F)c3cc2O1` (racemic) [JGK062, (±)-N-(3-Bromo-2-fluorophenyl)-7-ethenyl-7,8-dihydro[1,4]dioxino[2,3-g]quinazolin-4-amine]: the figures for the GI50 with HK301 and in the assay with GBM39 were 3.78 µM and 5.86 µM, respectively.

On to `Fc1c(Br)cccc1Nc1ncnc2cc3c(cc12)OC(CCN1CCOCC1)CO3` (racemic) [JGK064, (±)-N-(3-Bromo-2-fluorophenyl)-7-[2-(morpholin-4-yl)ethyl]-7,8-dihydro[1,4]dioxino[2,3-g]quinazolin-4-amine], for which the GI50 was 1.21 µM with HK301 and 4 µM with GBM39.

As to `Fc1c(Br)cccc1Nc1ncnc2cc3c(cc12)OC(CN1CCCCC1)CO3` (racemic) [JGK065, (±)-N-(3-Bromo-2-fluorophenyl)-7-[(piperidin-1-yl)methyl]-7,8-dihydro[1,4]dioxino[2,3-g]quinazolin-4-amine], the figures for the GI50 in the assay with HK301 and with GBM39 were 3.43 µM and 7.34 µM, respectively.

On to `Fc1c(Br)cccc1Nc1ncnc2cc3c(cc12)OC(CN1CCCC1)CO3` (racemic) [JGK067, (±)-N-(3-Bromo-2-fluorophenyl)-7-[(pyrrolidin-1-yl)methyl]-7,8-dihydro[1,4]dioxino[2,3-g]quinazolin-4-amine], for which the GI50 with HK301 was found to be 0.898 µM; in the assay on GBM39, 2.2 µM.

As to `CN(C)CCC1COc2cc3ncnc(Nc4cccc(Br)c4F)c3cc2O1` (racemic) [JGK069, (±)-N-(3-Bromo-2-fluorophenyl)-7-[2-(dimethylamino)ethyl]-7,8-dihydro[1,4]dioxino[2,3-g]quinazolin-4-amine], the GI50 stood at 0.659 µM with HK301 and 2.17 µM with GBM39.

For `CN1CCN(CCC2COc3cc4ncnc(Nc5cccc(Br)c5F)c4cc3O2)CC1` (racemic) [JGK070, (±)-N-(3-Bromo-2-fluorophenyl)-7-[2-(4-methylpiperazin-1-yl)ethyl]-7,8-dihydro[1,4]dioxino[2,3-g]quinazolin-4-amine], the GI50 worked out at 1.41 µM with HK301 and 3.33 µM in the assay on GBM39.

Regarding `CN1CCN(CC2COc3cc4ncnc(Nc5cccc(Cl)c5F)c4cc3O2)CC1` (racemic) [JGK075, (±)-N-(3-Chloro-2-fluorophenyl)-7-[(4-methylpiperazin-1-yl)methyl]-7,8-dihydro[1,4]dioxino [2,3-g]quinazolin-4-amine], the GI50 with HK301 amounted to 1.18 µM; in the assay on GBM39, 4 µM.

With `Fc1c(Br)cccc1Nc1ncnc2cc3c(cc12)OCC(CN1CCOCC1)O3` (racemic) [JGK076, (±)-N-(3-Bromo-2-fluorophenyl)-8-[(morpholin-4-yl)methyl]-7,8-dihydro[1,4]dioxino[2,3-g]quinazolin-4-amine], the GI50 with HK301 was 6.16 µM; with GBM39 it was 16.9 µM.

Take `CN(C)CC1COc2cc3c(Nc4cccc(Br)c4F)ncnc3cc2O1` (racemic) [JGK077, (±)-N-(3-Bromo-2-fluorophenyl)-8-[(dimethylamino)methyl]-7,8-dihydro[1,4]dioxino[2,3-g]quinazolin-4-amine]: the GI50 amounted to 6.84 µM in the assay with HK301 and 16.7 µM in the assay on GBM39.

`CN1CCN(CC2COc3cc4c(Nc5cccc(Br)c5F)ncnc4cc3O2)CC1` (racemic) [JGK078, (±)-N-(3-Bromo-2-fluorophenyl)-8-[(4-methylpiperazin-1-yl)methyl]-7,8-dihydro[1,4]dioxino[2,3-g]quinazolin-4-amine]: the GI50 came out at 2.03 µM with HK301 and 5.76 µM in the assay on GBM39.

With `Fc1c(Br)cccc1Nc1ncnc2cc3c(cc12)OCC(CN1CCCC1)O3` (racemic) [JGK079, (±)-N-(3-Bromo-2-fluorophenyl)-8-[(pyrrolidin-1-yl)methyl]-7,8-dihydro[1,4]dioxino[2,3-g]quinazolin-4-amine], the results for the GI50 with HK301 and in the assay on GBM39 were 7.21 µM and 15.7 µM, respectively.

`Fc1c(Br)cccc1Nc1ncnc2cc3c(cc12)OCC(CN1CCCCC1)O3` (racemic) [JGK080, (±)-N-(3-Bromo-2-fluorophenyl)-8-[(piperidin-1-yl)methyl]-7,8-dihydro[1,4]dioxino[2,3-g]quinazolin-4-amine]: the GI50 in the assay with HK301 was 7.37 µM; with GBM39, 14.5 µM.

Regarding `Fc1c(Br)cccc1Nc1ncnc2cc3c(cc12)OC(CCN1CCCC1)CO3` (racemic) [JGK084, (±)-N-(3-Bromo-2-fluorophenyl)-7-[2-(pyrrolidin-1-yl)ethyl]-7,8-dihydro[1,4]dioxino[2,3-g]quinazolin-4-amine], the GI50 is 1.83 µM with HK301 and 5.64 µM in the assay on GBM39.

On to `Fc1c(Br)cccc1Nc1ncnc2cc3c(cc12)OC(CCN1CCCCC1)CO3` (racemic) [JGK085, (±)-N-(3-Bromo-2-fluorophenyl)-7-[2-(piperidin-1-yl)ethyl]-7,8-dihydro[1,4]dioxino[2,3-g]quinazolin-4-amine], for which the GI50 in the assay on HK301 was 1.02 µM; in the assay on GBM39, 2.62 µM.

Regarding `Fc1c(Br)cccc1Nc1ncnc2cc3c(cc12)OCC(CCN1CCOCC1)O3` (racemic) [JGK086, (±)-N-(3-Bromo-2-fluorophenyl)-8-[2-(morpholin-4-yl)ethyl]-7,8-dihydro[1,4]dioxino[2,3-g]quinazolin-4-amine], the GI50 was determined as 2.56 µM in the assay on HK301 and 4.45 µM in the assay on GBM39.

As for `CN(C)CCC1COc2cc3c(Nc4cccc(Br)c4F)ncnc3cc2O1` (racemic) [JGK087, (±)-N-(3-Bromo-2-fluorophenyl)-8-[2-(dimethylamino)ethyl]-7,8-dihydro[1,4]dioxino[2,3-g]quinazolin-4-amine], the values for the GI50 in the assay with HK301 and in the assay on GBM39 were 3.74 µM and 5.26 µM, respectively.

Regarding `CN1CCN(CCC2COc3cc4c(Nc5cccc(Br)c5F)ncnc4cc3O2)CC1` (racemic) [JGK088, (±)-N-(3-Bromo-2-fluorophenyl)-8-[2-(4-methylpiperazin-1-yl)ethyl]-7,8-dihydro[1,4]dioxino[2,3-g]quinazolin-4-amine], the GI50 came out at 2.13 µM in the assay with HK301 and 4.06 µM in the assay on GBM39.

Turning to `Fc1c(Br)cccc1Nc1ncnc2cc3c(cc12)OCC(CCN1CCCC1)O3` (racemic) [JGK089, (±)-N-(3-Bromo-2-fluorophenyl)-8-[2-(pyrrolidin-1-yl)ethyl]-7,8-dihydro[1,4]dioxino[2,3-g]quinazolin-4-amine], the GI50 in the assay with HK301 was determined as 3.16 µM; with GBM39, 5.09 µM.

For the molecule `Fc1c(Br)cccc1Nc1ncnc2cc3c(cc12)OCC(CCN1CCCCC1)O3` (racemic) [JGK090, (±)-N-(3-Bromo-2-fluorophenyl)-8-[2-(piperidin-1-yl)ethyl]-7,8-dihydro[1,4]dioxino[2,3-g]quinazolin-4-amine], the GI50 in the assay on HK301 was 2.39 µM; in the assay on GBM39, 4.33 µM.

As to `C#Cc1cccc(N(C(=O)OC(C)(C)C)C2=NC(OC)N(C(=O)OC(C)(C)C)c3cc(OCCOC)c(OCCOC)cc32)c1` (stereo not shown) [JGK001], the results for the GI50 with HK301 and with GBM39 were 2.21 µM and 19.7 µM, respectively.

Turning to `C#Cc1cccc(N(C(C)=O)c2ncnc3cc(OCCOC)c(OCCOC)cc23)c1` [JGK002], the GI50 was 5.45 µM with HK301 and 19.8 µM in the assay on GBM39.

Take `C#Cc1cccc(N(C(=O)OC(C)(C)C)C2=NC(OCC)N(C(=O)OC(C)(C)C)c3cc(OCCOC)c(OCCOC)cc32)c1` (stereo not shown) [JGK003]: the results for the GI50 in the assay with HK301 and with GBM39 were 1.13 µM and 23.1 µM, respectively.

On to `O=C(Oc1cc2ncnc(Nc3cccc(Cl)c3F)c2cc1OC(=O)c1ccccc1)c1ccccc1` [JGK004], for which the GI50 came out at 23.4 µM with HK301 and 103 µM in the assay on GBM39.

For the molecule `C#Cc1cccc(Nc2ncnc3cc(OC(=O)c4ccccc4)c(OC(=O)c4ccccc4)cc23)c1` [JGK006], the GI50 with HK301 stood at 11 µM; in the assay with GBM39, 51.4 µM.

Regarding `C#Cc1cccc(N(C(=O)[C@H](Cc2ccccc2)NC(=O)OC(C)(C)C)c2ncnc3cc(OCCOC)c(OCCOC)cc23)c1` [JGK007], in the assay on HK301, the GI50 was found to be 92.1 µM.

For `CC(C)(C)OC(=O)N(CCS(C)(=O)=O)Cc1ccc(-c2ccc3ncnc(Nc4ccc(OCc5cccc(F)c5)c(Cl)c4)c3c2)o1` [JGK008], in the assay with HK301, the GI50 came out at 81.3 µM.

Take `C#Cc1cccc(N(C(=O)CCCCOC(=O)CCCCOC(=O)CCCCOC(C)=O)c2ncnc3cc(OCCOC)c(OCCOC)cc23)c1` [JGK009]: the GI50 was 6.1 µM in the assay with HK301 and 14.6 µM with GBM39.

On to `CC(=O)N(CCS(C)(=O)=O)Cc1ccc(-c2ccc3ncnc(N(C(C)=O)c4ccc(OCc5cccc(F)c5)c(Cl)c4)c3c2)o1` [JGK011], for which the GI50 in the assay on HK301 is 9.21 µM; in the assay with GBM39, 3.25 µM.

Turning to `CC(=O)N(c1cccc(Cl)c1F)c1ncnc2cc3c(cc12)OCCO3` [JGK0012], the GI50 in the assay on HK301 was determined as 5.48 µM; in the assay with GBM39 it was 10.8 µM.

Take `COC1N=C(N(C(=O)OC(C)(C)C)c2cccc(Cl)c2F)c2cc3c(cc2N1C(=O)OC(C)(C)C)OCCO3` (stereo not shown) [JGK013]: the GI50 was determined as 1.55 µM in the assay with HK301 and 220 µM in the assay with GBM39.

Consider `CCOC(=O)N(c1cccc(Cl)c1F)c1ncnc2cc3c(cc12)OCCO3` [JGK047, Ethyl (3-chloro-2-fluorophenyl)7,8-dihydro[1,4]dioxino[2,3-g]quinazolin-4-ylcarbamate], for which, in the assay with HK301, the GI50 is 316 µM.
